Data on 14 molecules can be found in patent US5571819A, “Imidazopyridines as muscarinic agents” (priority 1994, dated 1996).

Where two headings read alike, the source gives them in different places.

Data set [1] addresses T1, ml receptors (muscarinic receptor subtypes) (Homo sapiens, UniProt P11229).
T1 sequence (P11229 1-460): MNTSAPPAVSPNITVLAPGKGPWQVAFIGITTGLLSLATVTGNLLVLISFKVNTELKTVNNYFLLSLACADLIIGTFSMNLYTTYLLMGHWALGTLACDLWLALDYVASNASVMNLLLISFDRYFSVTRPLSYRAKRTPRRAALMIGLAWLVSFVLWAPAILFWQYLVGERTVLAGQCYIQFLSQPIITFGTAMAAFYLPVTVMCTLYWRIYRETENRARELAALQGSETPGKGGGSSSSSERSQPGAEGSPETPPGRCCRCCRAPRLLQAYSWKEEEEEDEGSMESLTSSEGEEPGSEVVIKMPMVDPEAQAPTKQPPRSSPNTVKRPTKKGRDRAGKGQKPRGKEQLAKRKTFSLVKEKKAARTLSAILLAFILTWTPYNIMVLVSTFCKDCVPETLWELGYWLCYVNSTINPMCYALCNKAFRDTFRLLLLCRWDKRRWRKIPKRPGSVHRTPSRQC
The experiment in a line: biochemical. Type of data set: binding.

Data set [2] has as its target T2, M1 acetylcholine receptors (Homo sapiens, UniProt P11229).
T2 sequence (P11229 1-460): T1 sequence (P11229 1-460)
In words: Stimulation of phosphoinositide (PI) hydrolysis in CHO cells expressing M1 acetylcholine receptors. To be noted: 1 h, read-out: % PI Hydrolysis ml receptors in CHO cells maximum %, carbachol = 100%. The data set is classed as cell-based.

The conditions of data set [3]: in vivo; cited from earlier work.
Data set [4] concerns patients with mild to moderate Alzheimer's Disease. To be noted: cited from earlier work; for improvement in memory in patients: mild to moderate Alzheimer's Disease.
Where [5] appears, read: ml 3H QNB Binding in CHO cells Ki (μM), [3H]QNB 0.23 nM, 37 °C, 1 hour, CHO cells, ml.
The mark [6] stands for this setting: read-out: ml 3H QNB Binding in CHO cells Ki, [3H]QNB 0.23 nM, 37 °C, 1 hour, CHO cells, ml.

The Ki is a measure of affinity in units of concentration, obtained from inhibition or displacement. In data set [1] (setting [5]), `Cn1cnc2c(O[C@H]3CN4CC[C@@H]3C4)nccc21` (relative stereo) [Example 1, endo-4-(1-Aza-bicyclo[2.2.1]hept-3-yloxy)-1-methyl-1H-imidazo[4,5-c]pyridine] yielded a Ki of 19.3 µM. Moreover, in data set [2], the Emax was 21.7%. As to `Cn1cnc2c(O[C@@H]3CN4CC[C@@H]3C4)nccc21` (relative stereo) [Example 4, (exo)-4-(1-Aza-bicyclo[2,2,1]hept-3-yloxy)-1-methyl-1H-imidazo[4,5-c]pyridine], the Ki in data set [1] (setting [6]) was found to be 20.6 µM.

Regarding `Cn1cnc2c(O[C@H]3CN4CC[C@@H]3C4)ncnc21` (relative stereo) [Example 9, endo-6-(1Aza-bicyclo[2.2,1]hept-3-yloxy)-9-methylpurine], in data set [1] (setting [5]), the inhibitory constant (Ki) is 27 µM. `Cn1cnc2c(O[C@@H]3CN4CC[C@@H]3C4)ncnc21` (relative stereo) [Example 10, exo-6-(1Aza-bicyclo[2,2.1]hept-3-yloxy)-9-methylpurine] had a Ki in data set [1] (setting [5]) of 17.1 µM. On to `Cn1cnc2c(O[C@H]3CN4CC[C@@H]3C4)nccc21` (single isomer, unassigned) [Example 3, (-)-endo-4-(1-Aza-bicyclo[2.2.1]hept-3-yloxy)-1-methyl-1H-imidazo[4,5-c]pyridine], for which, in data set [1] (setting [5]), the Ki stood at 14.2 µM. For the same molecule, the Emax in data set [2] was found to be 26.2%. For the molecule `c1ccc(Cn2cnc3c(OC4CN5CCC4CC5)nccc32)cc1` (single isomer, unassigned) [Example 7, (--)-3-(1-Benzyl-1H-imidazo[4,5-c]pyridin-4-yloxy)-1-aza-bicyclo[2.2.2]octane], the affinity in data set [1] (setting [5]) corresponds to a Ki of 17.6 µM.

`c1ccc(Cn2cnc3c(OC4CN5CCC4CC5)nccc32)cc1` (single isomer, unassigned; (+)) [Example 6, (+)-3-(1-Benzyl-1H-imidazo[4,5-c]pyridin-4-yloxy)-1-aza-bicyclo[2.2.2]octane] registered a Ki in data set [1] (setting [5]) of 13.4 µM. As for `c1ccc(Cn2cnc3c(OC4CN5CCC4CC5)nccc32)cc1` (stereo not drawn) [Example 5, 3-(1-Benzyl-1H-imidazo[4,5-c]pyridin-4-yloxy)-1-aza-bicyclo[2.2.2]octane], the inhibition constant (Ki) in data set [1] (setting [5]) turned out to be 3.85 µM. On the same count and under the same terms, as for `Cn1cnc2c(OCC3CN4CCC3CC4)nccc21` (stereo not drawn) [Example 8, 3-(1-Methyl-1H-imidazo[4,5,c]pyridin-4-yloxymethyl)-1-aza-bicyclo[2.2.2]octane], the figure is 2.65 µM. Take `Cn1c(C2(O)CN3CCC2CC3)nc2ncccc21` (stereo not drawn) [Example 13, 3-(1-Methyl-1H-imidazo[4,5-b]pyridin-2-yl)-1-aza-bicyclo[2.2.2]octan-3-ol]: in data set [1] (setting [6]), the Ki was 1.42 µM. For `OC1(c2nc3c(Cl)nccc3n2Cc2ccccc2)CN2CCC1CC2` (stereo not drawn) [Example 14, 3-(1-Benzyl-4-chloro-1H-imidazo[4,5-c]pyridin-2-yl)-1-azabicyclo[2.2.2]octan-3-ol], in data set [1] (setting [5]), the Ki stood at 1.65 µM. Take `CCN1CCCC(O)(c2nc3c(Cl)nccc3n2Cc2ccccc2)C1` (stereo not drawn) [Example 15, 3-(1-Benzyl-4-chloro-1H-imidazo[4,5-c]pyridin-2-yl)-1-ethyl-piperidin-3-ol]: the Ki in data set [1] (read-out: ml 3H QNB Binding in CHO cells Ki) amounted to 9.3 µM.

In the case of `COC(=O)C1=CCCN(C)C1` [arecoline], the half-life result in data set [3] is “short half-life”. Moreover, the “improvement in memory in patients” value in data set [4] is on record as “memory improvement in patients with mild to moderate Alzheimer's Disease”. On to `Nc1c2c(nc3ccccc13)CCCC2` [tacrine], for which the adverse side effects result in data set [4] (especially at the higher doses) is given as “adverse side effects especially at the higher doses where it is most effective”. Also, in data set [4], the “improvement in memory in patients” value is reported as “improvement in memory can be shown in patients with mild to moderate Alzheimer's Disease”.
